Data set [1] addresses Recombinant human Aurora B (amino acids 1-344) (Homo sapiens (Human), UniProt Q96GD4). As to the kind of experiment: Aurora B kinase test (ADP Glo luminescence). The data set is classed as biochemical. (In general: ADP-Glo turns the ADP formed in a reaction into a luminescent signal.)
Data set [2] is described as follows: Human liver microsomal stability test. The following applies: human liver microsomes; Qh = liver blood flow. It counts as in vitro ADME. Background: Liver microsomes are vesicles of endoplasmic reticulum, rich in cytochrome P450 enzymes.
The target of a further data set is FLT3 (Homo sapiens (Human), UniProt P36888). The experiment in a line: FLT3 kinase test (Z'-LYTE). The data set is classed as biochemical. Put shortly: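 Z'-LYTE FRET format; kinase reaction started with ATP, run 1 h at room temperature, then 1 h development before stop reagent. Controls without compound, without kinase, and phosphopeptide as 100% phosphorylation reference; values reported in M.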
Chain of FLT3 (P36888 27-993): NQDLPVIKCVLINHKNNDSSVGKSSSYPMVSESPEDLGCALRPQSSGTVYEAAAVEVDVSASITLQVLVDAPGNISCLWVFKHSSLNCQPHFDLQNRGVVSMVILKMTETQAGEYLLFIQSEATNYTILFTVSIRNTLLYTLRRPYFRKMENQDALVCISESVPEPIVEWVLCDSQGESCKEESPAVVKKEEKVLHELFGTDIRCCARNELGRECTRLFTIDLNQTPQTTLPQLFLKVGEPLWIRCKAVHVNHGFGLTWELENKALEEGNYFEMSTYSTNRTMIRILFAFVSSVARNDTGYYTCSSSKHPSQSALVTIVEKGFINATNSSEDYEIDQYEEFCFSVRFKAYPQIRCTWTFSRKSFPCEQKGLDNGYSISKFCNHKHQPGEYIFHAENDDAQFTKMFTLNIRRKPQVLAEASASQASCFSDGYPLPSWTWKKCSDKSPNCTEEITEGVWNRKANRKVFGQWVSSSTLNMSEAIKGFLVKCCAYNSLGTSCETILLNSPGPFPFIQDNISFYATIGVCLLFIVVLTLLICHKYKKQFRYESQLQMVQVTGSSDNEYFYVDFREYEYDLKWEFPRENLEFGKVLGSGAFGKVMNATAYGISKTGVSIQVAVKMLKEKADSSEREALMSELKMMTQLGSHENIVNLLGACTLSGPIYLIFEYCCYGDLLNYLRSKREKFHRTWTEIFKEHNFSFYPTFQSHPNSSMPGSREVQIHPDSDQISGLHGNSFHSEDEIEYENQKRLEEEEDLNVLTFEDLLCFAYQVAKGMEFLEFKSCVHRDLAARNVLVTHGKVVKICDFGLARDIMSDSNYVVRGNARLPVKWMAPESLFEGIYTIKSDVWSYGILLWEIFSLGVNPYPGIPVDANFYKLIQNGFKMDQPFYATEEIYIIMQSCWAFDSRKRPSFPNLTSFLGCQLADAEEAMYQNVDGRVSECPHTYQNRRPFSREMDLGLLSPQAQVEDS

In data set [3] the target is Recombinant human Syk (amino acids 342-635), GST-Syk kinase fusion protein (Homo sapiens (Human), UniProt P43405). As to the kind of experiment: Syk kinase test (Kinase Glo luminescence). The data set is classed as biochemical. A general note: Kinase-Glo reads ATP consumption through a luciferase reaction.
Another data set addresses Human GSK3beta (Homo sapiens (Human), UniProt P49841). As to the kind of experiment: GSK 3beta kinase test (Z'-LYTE). To be noted: read-out: IC50 in μM (GSK3beta-Inhibition). It counts as biochemical.
The mark [4] stands for this setting: Table 1, read-out: AURB-inhibition IC50-value.
[5] abbreviates: read-out: IC50 in μM (AURB-Inhibition).
Where [6] appears, read: Table 1, read-out: FLT3-inhibition IC50-value.
[7] abbreviates: read-out: IC50 in μM (FLT3-Inhibition).
Where [8] appears, read: Table 1, read-out: SYK-inhibition IC50-value.
[9] abbreviates: read-out: IC50 in μM (SYK-Inhibition).

Read-outs that look alike come from different tables or passages of the source.

Chain of Recombinant human Aurora B (amino acids 1-344) (Q96GD4 whole entry, the tested form may be a part): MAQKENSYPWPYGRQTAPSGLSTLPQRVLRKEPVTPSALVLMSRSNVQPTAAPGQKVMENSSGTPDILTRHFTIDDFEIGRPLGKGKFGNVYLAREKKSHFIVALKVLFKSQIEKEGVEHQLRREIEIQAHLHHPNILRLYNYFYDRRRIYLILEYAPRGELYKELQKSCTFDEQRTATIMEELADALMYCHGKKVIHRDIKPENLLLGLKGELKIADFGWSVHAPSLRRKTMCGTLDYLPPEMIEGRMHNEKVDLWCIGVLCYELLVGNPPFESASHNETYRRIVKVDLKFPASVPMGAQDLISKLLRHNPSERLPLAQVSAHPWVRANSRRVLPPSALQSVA
Chain of Human GSK3beta (P49841 whole entry): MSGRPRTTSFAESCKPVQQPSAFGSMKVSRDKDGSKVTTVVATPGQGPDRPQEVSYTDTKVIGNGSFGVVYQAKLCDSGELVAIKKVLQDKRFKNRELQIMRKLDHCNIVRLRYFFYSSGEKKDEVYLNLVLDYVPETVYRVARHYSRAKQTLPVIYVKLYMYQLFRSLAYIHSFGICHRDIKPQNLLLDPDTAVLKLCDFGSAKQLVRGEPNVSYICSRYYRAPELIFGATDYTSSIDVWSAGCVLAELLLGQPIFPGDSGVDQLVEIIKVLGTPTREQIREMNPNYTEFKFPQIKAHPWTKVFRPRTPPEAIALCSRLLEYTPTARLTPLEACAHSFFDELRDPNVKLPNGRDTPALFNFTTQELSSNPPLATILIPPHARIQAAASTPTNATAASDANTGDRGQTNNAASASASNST

`COc1ccc(-c2cc3nn(C)cc3c(O[C@H](C)[C@H]3CNC(=O)C3)n2)cn1` [Example 59, (4R)-4-[(1R)-1-[6-(6-methoxy-3-pyridyl)-2-methyl-pyrazolo-[4,3-c]pyridin-4-yl]oxyethyl]-pyrrolidin-2-one]: the concentration for half-maximal inhibition (IC50) in data set [1] (setting [4]) is greater than 50 µM; in data set [1] (setting [5]) it was greater than 50 µM; on FLT3 (setting [6]), 46.2 µM; at FLT3 (setting [7]), 46.2 µM; in data set [3] (setting [8]), 0.144 µM; in data set [3] (setting [9]), 0.144 µM. Moreover, the concentration for half-maximal inhibition (IC50) on Human GSK3beta is greater than 10 µM. The “microsomal stability Cl [% Qh]” value in data set [2] is less than 23 % Qh.
Consider `C[C@@H](Oc1nc(-c2ccc(C(F)(F)F)nc2)cc2nn(C)cc12)[C@H]1CNC(=O)C1` [Example 61, (4R)-4-[(1R)-1-[2-methyl-6-[6-(trifluoromethyl)-3-pyridyl]pyrazolo[4,3-c]pyridin-4-yl]oxyethyl]pyrrolidin-2-one], for which the 50% inhibitory concentration (IC50) in data set [1] (setting [4]) is greater than 50 µM; in data set [1] (setting [5]) it was greater than 50 µM; on FLT3 (setting [6]), 48.1 µM; at FLT3 (setting [7]), 48.1 µM; in data set [3] (setting [8]) it was 0.475 µM; in data set [3] (setting [9]), 0.475 µM. Moreover, the IC50 on Human GSK3beta was greater than 10 µM. For the same compound, in data set [2], the “microsomal stability Cl [% Qh]” value was less than 23 % Qh.
As for `C[C@@H](Oc1nc(-c2ccc3c(cnn3C)c2)cc2nn(C)cc12)[C@H]1CNC(=O)C1` [Example 62, (4R)-4-[(1R)-1-[2-methyl-6-(1-methylindazol-5-yl)pyrazolo[4,3-c]pyridin-4-yl]oxyethyl]pyrrolidin-2-one], the concentration for half-maximal inhibition (IC50) in data set [1] (setting [4]) was greater than 50 µM; in data set [1] (setting [5]), greater than 50 µM; on FLT3 (setting [6]), 4.78 µM; on FLT3 (setting [7]), 4.78 µM; in data set [3] (setting [8]), 0.0193 µM; in data set [3] (setting [9]) it was 0.0193 µM. The IC50 on Human GSK3beta was greater than 10 µM. In addition, the “microsomal stability Cl [% Qh]” value in data set [2] is less than 23 % Qh.
For `C[C@@H](Oc1nc(-c2ccc(N3CCN(C)CC3)cc2)cc2nn(C)cc12)[C@H]1CNC(=O)C1` [Example 67, (4R)-4-[(1R)-1-[2-methyl-6-[4-(4-methylpiperazin-1-yl)phenyl]pyrazolo[4,3-c]pyridin-4-yl]oxyethyl]-pyrrolidin-2-one], the 50% inhibitory concentration (IC50) in data set [1] (setting [4]) is greater than 50 µM; in data set [1] (setting [5]) it was greater than 50 µM; on FLT3 (setting [6]), 1.68 µM; on FLT3 (setting [7]) it was 1.68 µM; in data set [3] (setting [8]) it was 0.0152 µM; in data set [3] (setting [9]), 0.0152 µM. In addition, the IC50 at Human GSK3beta is greater than 10 µM. In addition, in data set [2], the “microsomal stability Cl [% Qh]” value stood at 34 % Qh.
As for `C[C@@H](Oc1nc(-c2ccc3cnn(C)c3c2)cc2nn(C)cc12)[C@H]1CNC(=O)C1` [Example 72, (4R)-4-[(1R)-1-[2-methyl-6-(1-methylindazol-6-yl)pyrazolo[4,3-c]pyridin-4-yl]oxyethyl]pyrrolidin-2-one], the IC50 in data set [1] (setting [4]) was greater than 50 µM; in data set [1] (setting [5]), greater than 50 µM; at FLT3 (setting [6]), 19.6 µM; at FLT3 (setting [7]) it was 19.6 µM; in data set [3] (setting [8]) it was 0.0526 µM; in data set [3] (setting [9]) it was 0.0526 µM. In addition, at Human GSK3beta, the IC50 came to 1.45 µM. Besides, the “microsomal stability Cl [% Qh]” value in data set [2] is recorded as less than 23 % Qh.
Turning to `COc1cc(-c2cc3nn(C)cc3c(O[C@H](C)[C@H]3CNC(=O)C3)n2)ccc1OC(C)C` [Example 81, (4R)-4-[(1R)-1-[6-(4-isopropoxy-3-methoxy-phenyl)-2-methyl-pyrazolo-[4,3-c]pyridin-4-yl]oxyethyl]-pyrrolidin-2-one], the IC50 in data set [1] (setting [4]) came out at 48.4 µM; in data set [1] (setting [5]), 48.4 µM; on FLT3 (setting [6]), 5.24 µM; at FLT3 (setting [7]), 5.24 µM; in data set [3] (setting [8]), 0.024 µM; in data set [3] (setting [9]) it was 0.024 µM. On Human GSK3beta, the concentration for half-maximal inhibition (IC50) was greater than 10 µM. In data set [2], the “microsomal stability Cl [% Qh]” value is reported as less than 23 % Qh.

For orientation: IC50 means the point on the concentration scale where inhibition reaches its midpoint.

For the origin of these results see US9914735B2, “Heteroaryl Syk inhibitors” (Boehringer Ingelheim International GmbH, priority 2014, dated 2018).
